Numbered stars: 1 amine (or outer) side, 2 acyl side, 3 side chain; on linkers, the order of the positions; unused ones are H or OH. Bridge positions count the residues as written; N and C are the ends. Square brackets hold non-standard residues; d marks the D form. Ends that are not written are not given here. Peptide text beside a SMILES is read from it. * marks the point of attachment. Myristoyl = CCCCCCCCCCCCCC(=O)*; CO = O=C([*:1])[*:2]; Nlys = NCCCCNCC(=O)O
Assays:
[1] = molecular target: MyD88 (Homo sapiens, UniProt Q99836); assay: Comparison of linear 7-mer peptide with and without N-terminal myristoyl group (assay not specified); conditions: versus linear MyD88 inhibitor 7-mer peptide
Chain of MyD88 (Q99836 whole entry, species assumed): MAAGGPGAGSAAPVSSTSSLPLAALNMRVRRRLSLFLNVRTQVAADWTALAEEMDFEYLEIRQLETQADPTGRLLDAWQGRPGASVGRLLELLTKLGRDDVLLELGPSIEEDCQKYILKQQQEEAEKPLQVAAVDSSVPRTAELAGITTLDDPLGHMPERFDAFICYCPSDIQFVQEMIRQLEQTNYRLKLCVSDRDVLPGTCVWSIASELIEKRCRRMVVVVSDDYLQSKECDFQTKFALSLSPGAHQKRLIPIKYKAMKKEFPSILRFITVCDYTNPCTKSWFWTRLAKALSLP
Excerpt: The importance of additional moieties to enhance cell penetration is further evaluated. […] Therefore, backbone cyclic peptides with addition of a myristoyl group or other moieties designed to enhance cell penetration are also synthesized and tested for binding, inhibition, stability and permeability.

[2] = molecular target: T1, MyD88 dimerization (Homo sapiens, UniProt Q99836); assay: Co-immunoprecipitation of Flag-MyD88 with HA-MyD88 in HEK293 cells; assay type: cell-based; conditions: HEK293, IL-1 stimulation; 4×4MyDI at 20, 2, 0.2 μM; Myr-4×4MyDI at 0.2 or 2000 nM
T1 construct: constructs encoding HA-tagged full length MyD88 and Flag-tagged full length MyD88; expressed in transfected cells; host or cells: HEK293
T1 sequence (Q99836 whole entry): as the sequence (Q99836 whole entry, species assumed) above
Experimental: FIG. 10. 4×4MyDI blocks MyD88 dimerization. HEK293 cells were transfected with two plasmids, one encoding HA-MyD88 and the other encoding FLAG-MyD88 and after 48 hours the cells were either untreated (cont) or treated with 20 μM of the linear MyDI peptide, the scrambled version of the linear MyDI peptide (SEQ ID NO: 5,), or the 4×4MyDI at 20, 2, or 0.2 μM. After 3 h of treatment, cells were stimulated with recombinant human IL-1 (20 ng/ml) for 30 min and then lysed. Whole cell lysates (WCL) were immunoprecipitated with anti-HA beads (Thermo-Scientific) for 30 min and proteins were eluted with glycine Ph 2.0, neutralized, and loaded on an acrylamide gel for analysis. Proteins were transferred to nitrocellulose and the amount of Flag-MyD88 that co-precipitated with HA-MyD88 was detected by immunoblotting (IB) with anti-Flag antibody.
FIGS. 14A and 14B. […] Proteins were transferred to nitrocellulose and the amount of FLAG-MyD88 that co-precipitated with HA-MyD88 was detected by immunoblotting (IB) with anti-FLAG antibody. […] Percent inhibition of co-immunoprecipitation was calculated by comparing densitometry of bands in the treated lanes to control. […]
TLR and IL-1 receptor signaling proceeds through a multimeric protein signaling complex (the “Myddosome”) that is initiated by MyD88 homodimerization. […] Immunoprecipitated protein was eluted and analyzed by immunoblot using an antibody to Flag. […]

[3] = system: NFkB activation; assay: NFkB-luciferase reporter in RAW 264.7 macrophages stimulated with LPS; assay type: cell-based, mouse; conditions: RAW 264.7 NFkB-luc, 4 hours
Experimental: FIG. 13. 4×4MyDI and Myr4×4MyDI block NFkB induction in response to LPS stimulation of RAW 264.7 NFkB-luc cells. RAW 264.7 murine macrophages were transfected with an NFkB-luciferase reporter gene and stimulated with LPS in the absence or presence of increasing concentrations of the inhibitors. After 4 hours cells were lysed and luminescence was recorded using a Tecan plate reader. BG denotes background.
In this assay the mouse macrophage RAW264.7 cell line is transfected with an NFkB-luciferase reporter construct and then cells are stimulated by exposure to bacterial LPS and light emission is measured after addition of luciferase substrate.

[4] = system: OCI-LY3 (MyD88 L265P) cells; assay: Proliferation of lymphoma cells (Promega CellTiter viability assay); assay type: cell-based, human; conditions: 48 h; compared with OCI-LY19 (MyD88 WT)
Experimental: FIGS. 18A and 18B. 4×4MyDI and Myr-4×4MyDI block proliferation of Ly3 lymphoma cells that carry the L265P oncogenic mutation in MyD88. Cell lines OCI-LY3 (MyD88^L265P) and OCI-LY19 (MyD88^WT) were grown in RPMI supplemented with 10% FCS. Cells were counted and plated at identical concentrations in triplicate wells of 96 well plates and decreasing concentrations of 4×4MyDI […], or Myr-4×4MyDI (19B), was added to the wells. After 48 h cell viability was tested using the Promega CellTiter viability assay according to the manufacturer's instructions. Percent inhibition was calculated as [(1-OD of well with inhibitor/OD of well without inhibitor)*1001. Negative values in A represent enhanced growth in the presence of the inhibitor.
Genomic DNA was prepared from the human lymphoma cell lines OCI-LY3 (MyD88^L265P) and OCI-LY19 (MyD88^WT) to confirm the presence of the activating L265P mutation in the OCI-Ly3 cells (and the WT sequence in the OCI-Ly19 cells). The MyD88 region was amplified using the forward and reverse primers GGGATATGCTGAACTAAGTTGCCAC (SEQ ID NO: 7) and GACGTGTCTGTGAAGTTGGCATCTC (SEQ ID NO: 8), respectively, as described in Xu, L. et al Blood (2013) 121(11): 2051-2058. The PCR product was sequenced to confirm the mutation.
The cell lines were incubated alone or with increasing concentrations of the 4×4MyDI. […]

peptide stability on addition of myristoyl group [1] | MyD88 dimerization (Flag-MyD88 co-precipitated with HA-MyD88) [2] | block of NFkB activation [3] | Compound | proliferation of OCI-Ly3 cells [4]
without affecting peptide stability | – | – | CCCCCCCCCCCCCC(=O)N[C@@H](CCCNC(=N)N)C(=O)N[C@@H](CC(=O)O)C(=O)N[C@H](C(=O)N[C@@H](CC(C)C)C(=O)N1CCC[C@H]1C(=O)NCC(=O)N[C@H](C(=O)O)[C@@H](C)O)C(C)C (Myristoyl-RDVLPGT-OH; N-terminus and C-terminus assumed) | –
– | at least as active as 4×4MyDI | greater activity than the 4×4MyDI | Myr-4×4MyDI: 4×4MyDI backbone cyclic peptide with a myristoyl group (formula V) (Myristoyl-[Nlys]RDVL[Nlys]GT; bridge 1-6 via CO) | specifically blocked proliferation

— patent US10662225B2, “Backbone cyclized inhibitory peptides of myeloid differentiation factor 88 (MyD88)” (Yissum Research Development Company of the Hebrew …, priority 2016, dated 2020)
